Results published in ChEMBL document CHEMBL1201862, “PubChem BioAssay data set” (2004).
The source made the active and inactive calls.

Assays:
[1] = cells; format: functional
[2] = target: Heat shock protein HSP 90-alpha (Homo sapiens, UniProt P07900); format: functional, organism-based
[3] = target: T1, Heat shock factor protein 1 (Mus musculus, UniProt P38532); assay: HSF1 potentiators in luciferase reporter cells, confirmation, cell-based, NIH3T3, luminescence, dose retest (AID 435004); format: functional;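 note: stress induced by proteasome inhibitor MG132 added 30 min after compound; luciferase reporter driven by HSF1 response element in NIH3T3 cells; actives raise luminescence as potentiators of the MG132 stress response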
T1 sequence (P38532 whole entry): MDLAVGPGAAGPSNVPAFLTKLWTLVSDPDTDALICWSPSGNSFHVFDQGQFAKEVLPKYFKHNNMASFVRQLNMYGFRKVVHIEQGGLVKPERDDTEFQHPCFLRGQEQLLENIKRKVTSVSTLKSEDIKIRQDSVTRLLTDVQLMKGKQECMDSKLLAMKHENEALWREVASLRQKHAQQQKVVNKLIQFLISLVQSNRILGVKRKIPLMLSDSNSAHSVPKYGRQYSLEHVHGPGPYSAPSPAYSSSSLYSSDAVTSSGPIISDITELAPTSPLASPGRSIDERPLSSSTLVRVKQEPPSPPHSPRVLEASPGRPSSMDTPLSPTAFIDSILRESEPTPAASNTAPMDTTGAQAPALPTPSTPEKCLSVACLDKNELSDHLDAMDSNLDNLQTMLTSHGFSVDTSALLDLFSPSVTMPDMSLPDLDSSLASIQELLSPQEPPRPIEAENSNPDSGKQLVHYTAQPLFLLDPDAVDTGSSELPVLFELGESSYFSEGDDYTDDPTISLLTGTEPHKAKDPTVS

[4] = target: Large T antigen (Simian virus 40, UniProt P03070); format: functional, Betapolyomavirus macacae;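 note: Confirmatory-stage PubChem screen for compounds that inhibit SV40 T antigen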
Sequence of Large T antigen (P03070 whole entry): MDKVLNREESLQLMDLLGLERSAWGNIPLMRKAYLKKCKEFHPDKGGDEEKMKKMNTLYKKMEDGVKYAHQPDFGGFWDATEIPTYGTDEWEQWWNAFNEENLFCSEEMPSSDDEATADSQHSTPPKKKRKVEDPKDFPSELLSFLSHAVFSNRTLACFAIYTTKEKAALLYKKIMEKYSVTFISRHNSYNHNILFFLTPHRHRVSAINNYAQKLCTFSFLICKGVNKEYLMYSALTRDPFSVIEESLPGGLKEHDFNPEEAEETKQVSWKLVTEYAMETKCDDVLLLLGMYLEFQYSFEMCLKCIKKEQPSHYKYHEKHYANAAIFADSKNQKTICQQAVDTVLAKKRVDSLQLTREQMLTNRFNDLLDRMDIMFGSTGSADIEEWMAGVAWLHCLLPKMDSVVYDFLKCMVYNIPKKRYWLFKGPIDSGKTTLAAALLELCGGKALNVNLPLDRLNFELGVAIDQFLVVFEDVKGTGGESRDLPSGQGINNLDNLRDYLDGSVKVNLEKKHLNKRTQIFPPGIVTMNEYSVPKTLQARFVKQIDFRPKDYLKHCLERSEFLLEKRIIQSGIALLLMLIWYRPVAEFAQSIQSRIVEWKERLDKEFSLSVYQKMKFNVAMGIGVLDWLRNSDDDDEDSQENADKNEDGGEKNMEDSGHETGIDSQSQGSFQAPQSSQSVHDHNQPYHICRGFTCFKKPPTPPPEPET

[5] = inhibitors of intracellular T. cruzi replication, confirmation, NIH3T3 host cells, beta-gal luminescence (AID 2044); format: functional, cell-based;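 note: intracellular parasites grown in NIH/3T3 mouse fibroblasts as host cells; luminescent beta-galactosidase reporter signal from transgenic T. cruzi replicating inside host cells; inhibitors lower the luminescence signal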
[6] = cytotoxicity toward NIH3T3 fibroblasts, dose response, counter-screen, cell-based, ATP luminescence, mouse fibroblasts (AID 2010); format: functional;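 note: cells exposed to compound for about 90 hours before reading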
[7] = target: T2, High affinity choline transporter 1 (Homo sapiens, UniProt Q9GZV3); assay: CHT inhibitors, dose response, cell-based, 5-point CRC, membrane potential dye (AID 504840); format: functional
T2 sequence (Q9GZV3 whole entry): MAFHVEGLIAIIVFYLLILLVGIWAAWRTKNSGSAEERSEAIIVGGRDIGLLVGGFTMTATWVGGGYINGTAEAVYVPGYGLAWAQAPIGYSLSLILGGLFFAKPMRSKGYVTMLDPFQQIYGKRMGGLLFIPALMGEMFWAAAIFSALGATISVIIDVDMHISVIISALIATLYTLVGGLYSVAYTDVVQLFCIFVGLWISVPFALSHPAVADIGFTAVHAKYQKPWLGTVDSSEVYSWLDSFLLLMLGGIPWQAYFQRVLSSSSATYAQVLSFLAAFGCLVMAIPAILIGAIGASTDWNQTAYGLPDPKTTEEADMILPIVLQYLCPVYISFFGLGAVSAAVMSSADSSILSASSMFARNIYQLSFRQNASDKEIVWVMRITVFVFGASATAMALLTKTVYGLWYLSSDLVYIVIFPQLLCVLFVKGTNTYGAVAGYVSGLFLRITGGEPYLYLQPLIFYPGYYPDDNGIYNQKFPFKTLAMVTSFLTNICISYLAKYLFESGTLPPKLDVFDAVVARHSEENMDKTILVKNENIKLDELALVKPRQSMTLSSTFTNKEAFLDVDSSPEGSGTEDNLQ

[8] = target: T3, Ubiquitin-conjugating enzyme E2 N (Homo sapiens, UniProt P61088); format: functional;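 note: Dose-response confirmation in a TR-FRET assay detecting UBC13-driven polyubiquitin chain formation, inhibition measured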
T3 sequence (P61088 whole entry): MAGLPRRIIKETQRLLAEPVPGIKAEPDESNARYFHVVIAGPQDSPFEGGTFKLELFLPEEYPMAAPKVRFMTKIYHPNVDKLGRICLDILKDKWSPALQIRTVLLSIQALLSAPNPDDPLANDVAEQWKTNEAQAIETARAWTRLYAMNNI

[9] = target: T4, Polyadenylate-binding protein 1 (Homo sapiens, UniProt P11940); assay: PABP1 MLLE–PAM2 interaction inhibitors, dose response, miRNA deadenylation inhibitor project, biochemical, fluorescence polarization, Cy5-PAM2 peptide, secondary (AID 602260); format: functional; conditions: read-out: IC50_Mean
T4 sequence (P11940 whole entry): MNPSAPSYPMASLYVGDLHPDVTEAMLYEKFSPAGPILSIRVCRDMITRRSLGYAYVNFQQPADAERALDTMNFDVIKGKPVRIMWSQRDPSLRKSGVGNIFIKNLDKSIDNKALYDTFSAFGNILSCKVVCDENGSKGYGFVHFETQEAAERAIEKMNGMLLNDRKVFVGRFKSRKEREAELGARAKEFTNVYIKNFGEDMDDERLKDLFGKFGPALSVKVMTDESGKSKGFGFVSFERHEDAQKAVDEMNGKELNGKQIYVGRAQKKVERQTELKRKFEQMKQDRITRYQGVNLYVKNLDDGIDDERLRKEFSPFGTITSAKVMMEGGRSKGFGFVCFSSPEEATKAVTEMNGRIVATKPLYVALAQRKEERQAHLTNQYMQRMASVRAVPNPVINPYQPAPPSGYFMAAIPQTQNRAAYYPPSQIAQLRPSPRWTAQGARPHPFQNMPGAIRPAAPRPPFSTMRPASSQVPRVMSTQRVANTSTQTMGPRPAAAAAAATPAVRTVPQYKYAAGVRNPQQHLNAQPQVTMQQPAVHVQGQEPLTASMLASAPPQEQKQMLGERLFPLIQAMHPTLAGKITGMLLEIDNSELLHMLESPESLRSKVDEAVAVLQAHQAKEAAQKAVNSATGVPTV

[10] = target: T4, Polyadenylate-binding protein 1; assay: PABP1 MLLE–PAM2 binding inhibitor potency, dose response, biochemical, fluorescence polarization, FITC-PAM2 peptide (AID 602259); format: functional; conditions: read-out: IC50_Mean
[11] = HeLa cell cytotoxicity, dose response, cytotoxicity control for MgcRacGAP inhibitor project (AID 624300); format: functional
[12] = Luminescence Cell-Based Dose Retest to Confirm Inhibitors of Cancer Stem Cells. [Related pubchem assays (depositor defined):AID2717, AID2721]; format: functional; conditions: Homo sapiens
[13] = target: T5, Replicative DNA helicase DnaB (Mycobacterium tuberculosis, UniProt P9WMR3); assay: DnaB intein splicing inhibitors, dose response, biochemical, cell-free fluorescence (AID 449749); format: functional
T5 sequence (P9WMR3 whole entry): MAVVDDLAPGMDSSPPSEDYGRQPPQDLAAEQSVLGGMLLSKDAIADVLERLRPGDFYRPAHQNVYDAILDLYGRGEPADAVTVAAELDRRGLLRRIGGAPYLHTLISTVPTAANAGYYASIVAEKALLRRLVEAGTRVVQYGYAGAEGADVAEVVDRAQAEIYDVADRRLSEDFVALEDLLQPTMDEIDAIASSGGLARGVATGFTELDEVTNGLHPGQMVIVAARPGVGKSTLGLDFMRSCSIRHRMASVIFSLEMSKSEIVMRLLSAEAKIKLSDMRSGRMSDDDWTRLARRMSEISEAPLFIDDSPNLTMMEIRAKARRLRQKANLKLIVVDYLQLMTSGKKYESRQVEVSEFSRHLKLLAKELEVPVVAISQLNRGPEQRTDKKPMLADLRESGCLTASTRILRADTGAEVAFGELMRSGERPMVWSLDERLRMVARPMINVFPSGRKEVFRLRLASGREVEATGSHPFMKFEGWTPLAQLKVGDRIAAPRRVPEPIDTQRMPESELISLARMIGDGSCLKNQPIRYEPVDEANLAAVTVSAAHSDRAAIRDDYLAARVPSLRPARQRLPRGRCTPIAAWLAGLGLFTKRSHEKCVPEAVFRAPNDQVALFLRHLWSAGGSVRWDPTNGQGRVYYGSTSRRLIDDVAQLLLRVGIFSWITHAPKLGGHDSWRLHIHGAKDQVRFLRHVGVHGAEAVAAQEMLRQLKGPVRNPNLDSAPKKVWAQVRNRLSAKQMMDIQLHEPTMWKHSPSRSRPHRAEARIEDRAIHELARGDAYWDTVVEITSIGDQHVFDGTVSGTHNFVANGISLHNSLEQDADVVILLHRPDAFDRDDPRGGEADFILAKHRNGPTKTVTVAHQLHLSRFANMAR

[14] = target: T6, Protein RecA (Mycobacterium tuberculosis, UniProt P9WHJ3); assay: Fluorescence Cell-Free Homogeneous Dose Retest to Identify Inhibitors of RecA-Intein Splicing Activity. [Related pubchem assays (depositor defined):AID2097, AID2223, AID489010, AID492950]; format: functional
T6 sequence (P9WHJ3 whole entry): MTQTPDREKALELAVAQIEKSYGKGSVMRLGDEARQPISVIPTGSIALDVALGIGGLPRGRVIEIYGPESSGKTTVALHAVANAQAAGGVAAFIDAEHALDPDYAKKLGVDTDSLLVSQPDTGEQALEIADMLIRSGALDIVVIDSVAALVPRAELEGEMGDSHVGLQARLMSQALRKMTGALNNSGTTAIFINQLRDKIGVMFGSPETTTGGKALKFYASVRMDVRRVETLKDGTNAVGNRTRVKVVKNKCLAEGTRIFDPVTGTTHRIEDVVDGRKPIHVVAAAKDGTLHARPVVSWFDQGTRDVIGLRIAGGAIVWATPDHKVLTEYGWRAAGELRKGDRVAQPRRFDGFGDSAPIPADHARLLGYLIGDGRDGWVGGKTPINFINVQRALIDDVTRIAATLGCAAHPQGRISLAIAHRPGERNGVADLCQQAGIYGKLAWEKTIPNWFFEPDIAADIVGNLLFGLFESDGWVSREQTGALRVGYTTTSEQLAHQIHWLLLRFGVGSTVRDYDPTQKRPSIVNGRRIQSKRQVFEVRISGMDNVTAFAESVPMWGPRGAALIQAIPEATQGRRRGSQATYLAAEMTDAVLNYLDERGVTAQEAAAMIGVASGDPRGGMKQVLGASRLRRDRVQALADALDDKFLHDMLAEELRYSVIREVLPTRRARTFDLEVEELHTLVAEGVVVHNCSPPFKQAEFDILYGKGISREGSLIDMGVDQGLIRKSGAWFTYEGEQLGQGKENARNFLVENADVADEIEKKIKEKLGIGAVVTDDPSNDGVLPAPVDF

[15] = target: T7, Fatty acid synthase (Homo sapiens, UniProt P49327); assay: FAS thioesterase domain inhibitors, dose response, biochemical, endpoint fluorescence intensity, uHTS hits (AID 624327); format: functional;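 note: fluorescence from hydrolysis of an O-methyl fluorescein acyl ester substrate by the enzyme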
T7 sequence (P49327 whole entry, the tested form may be a part): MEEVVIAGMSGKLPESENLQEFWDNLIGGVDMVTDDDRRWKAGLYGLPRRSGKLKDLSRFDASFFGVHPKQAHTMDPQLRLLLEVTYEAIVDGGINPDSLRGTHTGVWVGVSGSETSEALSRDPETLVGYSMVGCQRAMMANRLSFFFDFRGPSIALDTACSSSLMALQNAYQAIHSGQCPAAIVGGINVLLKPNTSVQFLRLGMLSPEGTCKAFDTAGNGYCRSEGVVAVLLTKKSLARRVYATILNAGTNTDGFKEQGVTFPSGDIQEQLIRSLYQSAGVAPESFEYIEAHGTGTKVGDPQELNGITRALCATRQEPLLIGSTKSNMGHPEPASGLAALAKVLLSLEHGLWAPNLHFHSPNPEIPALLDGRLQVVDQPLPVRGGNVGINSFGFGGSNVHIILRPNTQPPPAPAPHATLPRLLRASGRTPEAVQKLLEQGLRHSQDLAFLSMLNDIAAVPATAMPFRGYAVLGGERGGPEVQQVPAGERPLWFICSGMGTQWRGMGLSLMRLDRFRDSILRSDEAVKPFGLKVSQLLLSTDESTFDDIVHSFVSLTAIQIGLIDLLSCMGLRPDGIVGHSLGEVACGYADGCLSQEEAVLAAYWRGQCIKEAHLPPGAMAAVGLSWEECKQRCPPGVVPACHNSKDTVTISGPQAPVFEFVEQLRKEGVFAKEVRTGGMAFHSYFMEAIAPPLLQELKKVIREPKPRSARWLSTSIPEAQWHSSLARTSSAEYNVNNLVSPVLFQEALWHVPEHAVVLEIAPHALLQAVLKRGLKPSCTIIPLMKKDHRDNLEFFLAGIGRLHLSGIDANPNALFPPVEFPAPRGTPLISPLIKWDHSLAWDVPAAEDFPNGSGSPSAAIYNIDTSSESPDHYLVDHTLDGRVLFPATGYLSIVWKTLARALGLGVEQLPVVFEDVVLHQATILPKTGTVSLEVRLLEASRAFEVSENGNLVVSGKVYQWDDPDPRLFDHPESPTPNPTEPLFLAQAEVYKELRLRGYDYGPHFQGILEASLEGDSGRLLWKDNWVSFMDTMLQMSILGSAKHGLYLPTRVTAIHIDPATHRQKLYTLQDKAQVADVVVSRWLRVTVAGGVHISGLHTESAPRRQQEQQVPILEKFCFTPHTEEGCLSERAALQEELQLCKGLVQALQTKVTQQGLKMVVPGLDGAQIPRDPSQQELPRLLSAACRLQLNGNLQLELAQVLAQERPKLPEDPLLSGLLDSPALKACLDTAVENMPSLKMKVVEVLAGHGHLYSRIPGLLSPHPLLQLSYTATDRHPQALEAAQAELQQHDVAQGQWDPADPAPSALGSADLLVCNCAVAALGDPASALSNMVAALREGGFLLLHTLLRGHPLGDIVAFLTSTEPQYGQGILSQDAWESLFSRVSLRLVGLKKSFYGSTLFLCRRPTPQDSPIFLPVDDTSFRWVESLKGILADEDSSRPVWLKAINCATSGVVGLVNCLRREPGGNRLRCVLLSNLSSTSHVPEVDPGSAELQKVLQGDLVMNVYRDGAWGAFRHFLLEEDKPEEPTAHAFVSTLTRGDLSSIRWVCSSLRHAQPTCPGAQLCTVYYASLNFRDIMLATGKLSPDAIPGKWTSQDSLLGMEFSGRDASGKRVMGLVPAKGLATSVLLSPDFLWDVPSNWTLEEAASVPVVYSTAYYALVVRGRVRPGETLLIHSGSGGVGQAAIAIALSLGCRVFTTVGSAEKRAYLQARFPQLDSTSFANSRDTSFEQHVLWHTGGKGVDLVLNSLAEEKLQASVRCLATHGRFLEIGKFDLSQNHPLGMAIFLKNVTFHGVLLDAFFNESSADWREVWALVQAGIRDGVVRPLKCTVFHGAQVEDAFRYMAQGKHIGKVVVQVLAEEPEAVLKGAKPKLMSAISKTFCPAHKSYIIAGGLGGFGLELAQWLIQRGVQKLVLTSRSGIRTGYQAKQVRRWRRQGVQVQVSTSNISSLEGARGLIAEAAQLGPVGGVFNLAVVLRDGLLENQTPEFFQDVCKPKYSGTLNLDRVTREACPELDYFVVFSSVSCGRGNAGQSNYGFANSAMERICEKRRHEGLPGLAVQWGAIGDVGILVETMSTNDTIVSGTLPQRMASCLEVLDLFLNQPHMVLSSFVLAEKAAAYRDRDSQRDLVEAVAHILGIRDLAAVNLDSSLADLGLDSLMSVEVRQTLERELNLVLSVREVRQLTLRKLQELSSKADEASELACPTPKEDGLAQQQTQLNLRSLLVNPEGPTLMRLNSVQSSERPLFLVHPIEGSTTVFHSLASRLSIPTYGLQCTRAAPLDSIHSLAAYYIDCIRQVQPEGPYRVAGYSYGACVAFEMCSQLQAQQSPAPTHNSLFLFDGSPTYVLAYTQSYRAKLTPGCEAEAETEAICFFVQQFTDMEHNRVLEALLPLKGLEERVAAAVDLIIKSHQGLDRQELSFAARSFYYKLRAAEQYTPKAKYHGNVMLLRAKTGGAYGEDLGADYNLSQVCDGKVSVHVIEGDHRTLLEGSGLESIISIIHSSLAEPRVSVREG

[16] = target: T7, Fatty acid synthase; assay: FAS thioesterase domain inhibitors, dose response, biochemical, kinetic fluorescence intensity (AID 624326); format: functional;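 note: rate of fluorescence rise from hydrolysis of a fluorogenic O-methyl fluorescein ester substrate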
[17] = target: FAD-linked sulfhydryl oxidase ALR (Homo sapiens, UniProt P55789); assay: inhibitors of human ALR sulfhydryl oxidase, dose response, biochemical, H2O2 detection, luminescence, cherry-pick (AID 493248)
Sequence of FAD-linked sulfhydryl oxidase ALR (P55789 whole entry): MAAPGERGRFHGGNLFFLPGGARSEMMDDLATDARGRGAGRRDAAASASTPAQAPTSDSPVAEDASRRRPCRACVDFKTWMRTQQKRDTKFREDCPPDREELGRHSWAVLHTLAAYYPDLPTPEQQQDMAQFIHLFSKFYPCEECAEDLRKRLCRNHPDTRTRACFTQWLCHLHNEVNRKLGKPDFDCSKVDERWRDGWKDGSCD

[18] = target: T8, Rac GTPase-activating protein 1 (Homo sapiens, UniProt Q9H0H5); assay: MgcRacGAP GTPase-activating activity inhibitors, confirmation, biochemical, ADP Hunter fluorescence, primary and confirmatory (AID 624330); format: functional
T8 sequence (Q9H0H5 whole entry): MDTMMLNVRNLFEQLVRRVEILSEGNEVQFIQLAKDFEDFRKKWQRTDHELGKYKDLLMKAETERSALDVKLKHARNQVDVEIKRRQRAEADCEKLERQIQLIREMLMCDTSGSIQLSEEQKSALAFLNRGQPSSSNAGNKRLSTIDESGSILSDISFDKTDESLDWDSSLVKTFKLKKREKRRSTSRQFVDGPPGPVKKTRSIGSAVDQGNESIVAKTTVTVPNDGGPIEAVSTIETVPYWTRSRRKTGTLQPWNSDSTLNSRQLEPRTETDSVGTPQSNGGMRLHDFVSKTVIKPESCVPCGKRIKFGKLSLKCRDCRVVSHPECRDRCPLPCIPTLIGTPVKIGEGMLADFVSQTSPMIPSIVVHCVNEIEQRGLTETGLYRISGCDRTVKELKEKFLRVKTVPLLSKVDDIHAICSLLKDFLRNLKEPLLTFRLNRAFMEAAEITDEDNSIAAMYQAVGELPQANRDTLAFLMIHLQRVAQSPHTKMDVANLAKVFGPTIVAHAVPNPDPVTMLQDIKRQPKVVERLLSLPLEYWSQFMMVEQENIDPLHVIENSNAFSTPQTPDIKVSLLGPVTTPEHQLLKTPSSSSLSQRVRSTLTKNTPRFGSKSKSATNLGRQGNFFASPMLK

[19] = target: Cytochrome P450 2C9 (Homo sapiens, UniProt P11712)
Sequence of Cytochrome P450 2C9 (P11712 whole entry): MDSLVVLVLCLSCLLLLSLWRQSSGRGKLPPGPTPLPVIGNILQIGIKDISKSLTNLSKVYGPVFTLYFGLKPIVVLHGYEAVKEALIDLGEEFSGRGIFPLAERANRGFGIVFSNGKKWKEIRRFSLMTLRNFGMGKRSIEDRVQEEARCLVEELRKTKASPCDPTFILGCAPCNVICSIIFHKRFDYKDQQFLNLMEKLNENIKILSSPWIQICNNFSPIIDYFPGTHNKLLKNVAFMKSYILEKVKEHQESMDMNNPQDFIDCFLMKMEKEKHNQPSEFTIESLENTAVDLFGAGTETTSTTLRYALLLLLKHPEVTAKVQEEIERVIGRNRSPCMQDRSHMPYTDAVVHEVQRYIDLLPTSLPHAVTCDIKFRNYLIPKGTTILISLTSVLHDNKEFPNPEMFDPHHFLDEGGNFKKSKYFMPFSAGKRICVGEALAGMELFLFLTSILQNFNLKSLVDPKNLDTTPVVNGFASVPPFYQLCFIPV

CS(=O)(=O)Nc1cccc2cccnc12
IC50 [1]: 2.87 µM (active)

Cc1ccc(C(=O)ONC(=O)c2ccc(Cl)cc2)cc1[N+](=O)[O-]
AC50 [2]: 4.03 µM (active)

CCOC(=O)C1CCCN(C(=O)c2sc3nc(C)nc(N(CC)CC)c3c2C)C1 (configuration not stated)
EC50 [3]: > 260 µM (inactive)

CC(C)c1ccc(C2CC(=O)N3CN(C)CSC3=C2C#N)cc1 (configuration not stated)
IC50 [4]: 54.9 µM (active)

COC(=O)/C=C1/N=C(Nc2nc(C)cc(C)n2)N(c2ccc(C)c(C)c2)C1=O
EC50 [3]: > 260 µM (inactive)

O=Cc1c(NCc2ccco2)nc2ccccn2c1=O
IC50 [1]: 40.4 µM (active)

CC(C)(C)C(=O)NCC12C=CC(O1)C1C(=O)N(c3ccccc3)C(=O)C12 (configuration not stated)
EC50 [3]: > 260 µM (inactive)
AC50 [2]: 8.25 µM (active)

COc1ccc(NC(=O)c2sccc2SCc2cccc(C(F)(F)F)c2)cc1
EC50 [5]: 2.61 µM (active)
EC50 [6]: > 60 µM (not active)
EC50 [3]: > 260 µM (inactive)

Cc1ccc(S(=O)(=O)N2[C@@H](c3ccc(Cl)cc3)C(C(=O)O)=CC[C@H]2c2ccc(Cl)cc2)cc1
IC50 [4]: > 100 µM (active)
IC50 [7]: 5.01 µM (active)

c1ccc(C2(CN3CCNC[C@H]3Cc3cccc4ccccc34)CC2)cc1
IC50 [8]: > 20 µM (inactive)

CN(C)/C=C/C(=O)/C=C/c1cn(-c2ncc(C(F)(F)F)cc2Cl)c2ccccc12
AC50 [2]: 2.9 µM (active)

CCCCCCC(=O)N(O)C1CC(=O)N(c2ccc(C)cc2)C1=O (configuration not stated)
AC50 [2]: 1.43 µM (active)
IC50 [9]: > 66 µM (inactive)
IC50 [10]: > 66 µM (inactive)

COc1ccc2nc3oc(C(=O)NC4CCN(Cc5ccccc5)CC4)cc3cc2c1
IC50 [8]: > 20 µM (inactive)

Cn1c(-c2cccc([N+](=O)[O-])c2)cnc1NCc1cccc([N+](=O)[O-])c1
CC50 [11]: 100 µM (active)

CCc1ccc(S(=O)(=O)N(C(=O)c2ccncc2)c2ccc(OC(=O)c3ccncc3)cc2)cc1
AC50 [2]: 1.03 µM (active)

CCCCN=C(S)NNC(=O)c1csc2ccccc12
EC50 [3]: > 260 µM (inactive)

CC1=CC2OC3CC4OC(=O)C=CC=CC(=O)OCCC(C)C(O)C(=O)OCC2(CC1)C4(C)C31CO1 (configuration not stated)
AC50 [2]: < 0.195 µM (active)

CCCCOc1ccc(C(=O)N/N=C/c2c[nH]nc2-c2ccc(OC)c(OC)c2)cc1
EC50 [3]: > 260 µM (inactive)

CC(C)(C)OC(=O)NCCc1nnc(S(=O)(=O)Cc2ccc(Cl)cc2Cl)o1
AC50 [12]: 3.94 µM (active)
IC50 [1]: 30.1 µM (active)
AC50 [13]: 1.61 µM (active)
EC50 [14]: 4.66 µM (active)
IC50 [15]: 4.23 µM (active)
IC50 [16]: 6.42 µM (active)

Sc1nnc(-c2ccco2)n1/N=C/c1cccc(Cl)c1Cl
AC50 [17]: 4.84 µM (active)
CC50 [11]: 96.5 µM (active)
IC50 [18]: 95.7 µM (active)

O=[N+]([O-])c1ccc(/C=N/c2ccc(Cl)cc2Cl)s1
AC50 [2]: 7.83 µM (active)
AC50 [19]: 2.24 µM (inconclusive)

CC(/C=N/n1c(S)nnc1-c1cccnc1)=C\c1ccccc1
IC50 [4]: 58.1 µM (active)

C/C(=N\NC(=O)Cn1cc([N+](=O)[O-])cn1)c1ccc(O)cc1
IC50 [4]: 54.5 µM (active)
